Legend:
SJSA-1 xenograft model = conditions: cited from earlier work; for tumor growth in SJSA-1 xenograft model: high oral doses (200–300 mg/kg) ref 8, 21
[1] = tested on: p53 activation in SJSA-1 osteosarcoma cell line; assay: Western blot analysis of p53 activation and PARP cleavage in SJSA-1 cells; assay type: cell-based, human; conditions: for full-length PARP (apoptosis induction) / p53 activation (accumulation of p53, MDM2 and p21): 24 h
[2] = tested on: p53 activation and apoptosis in SJSA-1 xenograft tumor tissues; assay: Pharmacodynamics study in SJSA-1 xenograft tumor tissues
[3] = single oral dose 100 mg/kg, 24 h

Structure (SMILES) | complete tumor regression (SJSA-1 xenograft model) | tumor growth in SJSA-1 xenograft model (SJSA-1 xenograft model) | full-length PARP (apoptosis induction) ([1]; Western blot) | p53 activation (accumulation of p53, MDM2 and p21) ([1]; Western blot) | times more potent than 2 in p53 activation [1] | times more potent than Nutlin-3a in p53 activation [1] | lowest concentration activating p53 (clear accumulation of p21 and p53) ([1]; Western blot) | cleavage of PARP and caspase-3 in tumor tissue ([2]; single oral dose 100 mg/kg, 1, 3 and 6 h) | p53, p21 and MDM2 protein levels in tumor tissue ([2]; single oral dose 100 mg/kg, 3 h and 6 h) | cleavage of PARP and caspase-3 in tumor tissue [2, 3] | p53, p21 and MDM2 protein levels in tumor tissue [2, 3]
CC(C)(C)C[C@H]1N[C@@H](C(=O)NCC[C@H](O)CO)[C@H](c2cccc(Cl)c2)[C@@]12C(=O)Nc1cc(Cl)c(F)cc12 [Compound 1] | failed to achieve complete tumor regression | inhibited tumor growth | – | – | – | – | – | – | – | – | –
CC(C)(C)C[C@@H]1N[C@@H](C(=O)NCC[C@H](O)CO)[C@H](c2cccc(Cl)c2F)[C@]12C(=O)Nc1cc(Cl)ccc12 [Compound 2] | failed to achieve complete tumor regression | inhibited tumor growth | dose-dependently diminished | effectively and dose-dependently activate p53 | – | – | – | – | – | – | –
CC(C)(C)C[C@@H]1N[C@@H](C(=O)N[C@H]2C[C@@](C)(O)C2)[C@H](c2cccc(Cl)c2F)[C@]12C(=O)Nc1cc(Cl)ccc12 [Compound 9] | – | – | dose-dependently diminished | effectively and dose-dependently activate p53 | at least 3 times | 10 times | 30 nM | minimal | robust upregulation | very clear | significantly diminished
COc1ccc(C2=N[C@@H](c3ccc(Cl)cc3)[C@@H](c3ccc(Cl)cc3)N2C(=O)N2CCNC(=O)C2)c(OC(C)C)c1 [Nutlin-3a, reference compound] | – | – | dose-dependently diminished | effectively and dose-dependently activate p53 | – | – | – | – | – | – | –
